The values that follow come from patent US20260248787A9, “MEDICAMENT FOR TREATING CANCER COMPRISING OPTICALLY ACTIVE AZABICYCLO RING DERIVATIVE” (Sumitomo Pharma Co., Ltd., priority 2023, published 2026).

The test system of the assay is MOLM-13 cells. Briefly: Tumor-bearing mice transplanted with MOLM-13 cells, with gilteritinib, T/C (Example 12). Type of assay: in vivo. To be noted: MOLM-13 tumor-bearing mice; oral; 30 mg/kg; 18 days. The method, then: The antitumor effects of the present compound and gilteritinib were evaluated. The present compound was weighed and dissolved in 0.5 w/v % Methyl Cellulose 400 solution to give the compound concentrations of 20 mg/mL and 10 mg/mL. Gilteritinib was weighed and suspended in 0.5 w/v % Methyl Cellulose 400 solution to give the compound concentrations of 3 mg/mL.
MOLM-13 cells (DSMZ) were intradermally implanted around the ventral region of 5-week old NOD. CB17-PrkdcSCID/J mice (female, The Jackson Laboratory Japan) at 1×10^6 cells/mouse. After confirming the engraftment of MOLM-13 cells 6 days after the transplantation, the present compound was orally administered to the mice at a dose of 100 mg/kg or 200 mg/kg, and gilteritinib was orally administered to the mice at a dose of 30 mg/kg, once a day for 18 days. The tumor volume was measured over time from the start of the administration, and the reduction effect of the tumor volume due to the compound-administration was evaluated. The tumor volume was calculated by the following formula using short axis and long axis of the tumor measured with an electronic caliper (Mitutoyo).
The control administration group in which only the solvent was administered and the test substance administration group were compared, and T/C was calculated using the following formula to evaluate the antitumor effect.

As for `CCc1nc(C(N)=O)c(Nc2ccc(N3CCC(N4CCN(C)CC4)CC3)c(OC)c2)nc1NC1CCOCC1` [gilteritinib, reference compound], the T/C is given as 5.3%.
